These results are taken from patent EP0384522A1, “Antiviral tetrahydroimidazo[1,4]benzodiazepin-2-thiones” (priority 1989, dated 1990).

By CC50 is commonly meant the concentration giving 50% cytotoxicity. Read a high CC50 as lower toxicity to the cells.

Holding throughout (assay type): cell-based
One series in a line: in vitro. The following applies: human, mt-4 cells, CD₅₀ (50% cytotoxic dose). The procedure:
(§1) A rapid, sensitive and automated assay procedure was used for the in-vitro evaluation of anti-HIV agents. An […] T4-cell line, MT-4, which was previously shown (Koyanagi et al., Int. J. Cancer, 36, 445-451, 1985) to be highly susceptible to and permissive for HIV infection, served as the target cell line. Inhibition of the HIV-induced cytopathic effect was used as the end point. The viability of both HIV- and mock-infected cells was assessed spectrophotometrically via the in-situ reduction of 3-(4,5-dimethylthiazol-2-yl)-2,5-diphenyltetrazolium bromide (MTT). The 50% cytotoxic dose (CD₅₀ in µg/ml) was defined as the concentration of compound that reduced the absorbance of the mock-infected control sample by 50%. The percent protection achieved by the compound in HIV-infected cells was calculated by the following formula: [formula] whereby (ODT)HIV is the optical density measured with a given concentration of the test compound in HIV-infected cells; (ODC)HIV is the optical density measured for the control untreated HIV-infected cells; (ODC)MOCK is the optical density measured for the control untreated mock-infected cells; all optical density values were determined at 540 nm. The dose achieving 50% protection according to the above formula was defined as the 50% effective dose (ED₅₀ in µg/ml). The ratio of CD₅₀ to ED₅₀ was defined as the selectivity index (SI).

A further series relates to HIV. The experiment in a line: Inhibition of the HIV-induced cytopathic effect in MT-4 cells (MTT assay). The following applies: for EC50: Human immunodeficiency virus 1, MT4, dose achieving 50% protection of HIV-infected MT-4 cells, read-out: ED₅₀ (50% effective dose); for EC50 / ED₅₀ (50% effective dose): MTT, 540 nm; for ED₅₀ (50% effective dose): dose achieving 50% protection of HIV-infected MT-4 cells. The procedure: as §1
Background: Damage to the host cells serves as the signal in cytopathic effect assays.

The subject of another series is mock-infected MT-4 cells. As to the kind of experiment: in vitro. The following applies: human. Here is the method:
as §1

Values after ≈ are worked out from the molar mass of the structure shown. Read-outs that look alike come from different tables or passages of the source.

In turn, `CCCN1Cc2cccc3[nH]c(=S)n(c23)CC1C` (stereo not drawn) [compound 1, 4,5,6,7-tetrahydro-5-methyl-6-propylimidazo-[4.5.1-jk][1,4]benzodiazepine-2(1H)-thione] showed a CC50 in “in vitro” of 147 µg/mL (≈ 562 µM). Moreover, the EC50 in the series with HIV is 0.155 µg/mL (≈ 0.593 µM). For the same compound, in the series on HIV (ratio of CD₅₀ to ED₅₀), the “SI (selectivity index)” value was 948.

The compound `CC(C)=CCN1Cc2cccc3[nH]c(=S)n(c23)CC1C` (racemic) [compound 4, (±)-4,5,6,7-tetrahydro-5-methyl-6-(3-methyl-2-butenyl)imidazo[4,5,1-jk][1,4]benzodiazepine-2(1H)-thione] gave a CC50 in the series “in vitro” of 25 µg/mL (≈ 87 µM). Also, the EC50 with HIV amounted to 0.013 µg/mL (≈ 0.0452 µM). In addition, the “SI (selectivity index)” value in the series with HIV (ratio of CD₅₀ to ED₅₀) came to 1923.

The compound `CC(C)=CCN1Cc2cccc3[nH]c(=S)n(c23)C[C@H]1C` [compound 6] had a CC50 in the series “in vitro” of no less than 250 µg/mL. Moreover, in the series with HIV, the EC50 came out at 0.045 µg/mL (≈ 0.157 µM). Further, in the series on HIV (ratio of CD₅₀ to ED₅₀), the “SI (selectivity index)” value is “≧5555”.

Regarding `CC(C)=CCN1Cc2cc(Cl)cc3[nH]c(=S)n(c23)C[C@@H]1C` [compound 3, (+)-(S)-9-chloro-4,5,6,7-tetrahydro-5-methyl-6-(3-methyl-2-butenyl)imidazo[4,5,1-jk][1,4]benzodiazepine-2(1H)-thione], the “CD₅₀ (50% cytotoxic dose)” value in the series on mock-infected MT-4 cells turned out to be 10 µg/mL. In addition, in the series with HIV, the “SI (selectivity index)” value is reported as 20400 and the “ED₅₀ (50% effective dose)” value turned out to be 0.0005 µg/mL.

Regarding `CC(C)=CCN1Cc2cc(Cl)cc3[nH]c(=S)n(c23)C[C@@H]1C` [compound 7], the “CD₅₀ (50% cytotoxic dose)” value with mock-infected MT-4 cells worked out at 23 µg/mL. Further, in the series on HIV, the “SI (selectivity index)” value stood at 12778 and the “ED₅₀ (50% effective dose)” value was 0.0018 µg/mL.

In turn, `CC(C)=CCN1Cc2cccc3[nH]c(=S)n(c23)C[C@@H]1C` [compound 5, (+)-(S)-4,5,6,7-tetrahydro-5-methyl-6-(3-methyl-2-butenyl)imidazo[4,5,1-jk] [1,4]benzodiazepine-2(1H)-thione] had a CC50 in “in vitro” of 325 µg/mL (≈ 1130 µM). Also, the EC50 in the series with HIV worked out at 0.008 µg/mL (≈ 0.0278 µM). For the same compound, the “SI (selectivity index)” value in the series with HIV (ratio of CD₅₀ to ED₅₀) turned out to be 40625.

Compound `C=C(C)CN1Cc2cccc3[nH]c(=S)n(c23)C[C@@H]1C` [compound 8] had a CC50 in “in vitro” of 4.6 µg/mL (≈ 16.8 µM). For the same compound, the EC50 with HIV came out at 0.0126 µg/mL (≈ 0.0461 µM). Besides, in the series with HIV (ratio of CD₅₀ to ED₅₀), the “SI (selectivity index)” value worked out at 365.

Take `C[C@H]1Cn2c(=S)[nH]c3cccc(c32)CN1CC1CC1` [compound 9]: the CC50 in the series “in vitro” is greater than 250 µg/mL. Also, in the series with HIV, the EC50 came to 0.0166 µg/mL (≈ 0.0607 µM). The “SI (selectivity index)” value in the series on HIV (ratio of CD₅₀ to ED₅₀) was greater than 15029.
